Entries after “also recorded” stand apart in the source; their conditions may differ.
Tests used:
[1] = stability of diluted infusion solution; type: physicochemical; settings: diluted with infusion media, 2-8° C.
Method: The cumulative time between dilution with infusion media, storage in a refrigerator and end of administration must not be longer than 24 hours. Ideally, diluted zoledronic acid solutions should be used immediately. However, if diluted zoledronic acid solutions cannot be used immediately, the solutions must be refrigerated at temperatures between 2-8° C. Before administration, the solution should be allowed to slowly warm to room temperature again.

[2] = test system: bone resorption; settings: cited from earlier work
[3] = test system: bone resorption; settings: variety of assays of bone metabolism; cited from earlier work
[4] = test system: subsequent osteoporotic fractures after hip fracture; test: placebo-controlled study of intravenous zoledronic acid in preventing subsequent osteoporotic fractures after a hip fracture; type: in vivo, human patients; settings: patients after recent surgical repair of hip fracture; 5 mg i.v. once per year plus vitamin D and calcium vs vitamin D and calcium alone; 12 and 24 months
From the text: “A Multinational, multicenter, double-blind, randomized, placebo-controlled, parallel-group study assessing the efficacy of intravenous zoledronic acid in preventing subsequent osteoporotic fractures after a hip fracture” is undertaken.
This will be a multicenter, randomized, double-blind, placebo-controlled, parallel group trial in men and women. Patients undergoing recent surgical repair of a low-trauma hip fracture will be eligible for enrollment. There will be at least 3 study contacts with patients after randomization within the first 24 months. Patients will have additional visits annually until 211 patients have reached the primary endpoint. The final visit for patients will be contingent on when this endpoint is achieved. Once the endpoint is achieved all patients will need to come in for a final visit. The final visit will be no less than 30 days from the patient's last dose of study medication or no more than 90 days after the day 211 patients have reached the primary endpoint. […]
The primary efficacy endpoint is time to first clinical fracture. Between treatment differences will be evaluated using a log-rank test to compare the time to clinical fracture between the two treatment groups. […]

O=P(O)(O)C(O)(Cn1ccnc1)P(=O)(O)O [zoledronic acid, 1-hydroxy-2-(imidazol-1-yl)ethane-1,1-diphosphonic acid]
stability of diluted infusion solutions [1]: at least 24 hours | untoward effects on bone formation or mineralization ([2]; at 0.3-30 nM in vitro and 0.3-30 μg/kg in vivo): without exerting any untoward effects on either bone formation or mineralization | doses at which inhibition of bone resorption in vivo was demonstrated ([2]; in vivo): 0.3 to 30 µg/kg | concentrations at which inhibition of bone resorption in vitro was demonstrated [3]: 0.3 to 30 nM | rate of subsequent (secondary) osteoporotic fractures [4]: significant reduction in secondary osteoporotic fractures; also recorded: significantly reduces the rate of all subsequent osteoporotic skeletal fractures
